EC50 data for 62 compounds are collected here from PubChem BioAssay AID489040 (Sanford-Burnham Center for Chemical Genomics, 2010).

Activity calls are given as the source filed them.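 Rule for the calls: active = mean half-maximal activating concentration from the dose-response fit at or below a set limit; inactive = the rest.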

The test concerns the target CHO-XBP1 luciferase reporter, IRE1-XBP1 UPR activation. Put plainly: activators of IRE1-XBP1 UPR arm, dose response, counter-screen for apoptotic UPR arm activators, CHO-XBP1 cells, luminescence (AID 489040).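 Note: reporter read after six hours of compound exposure.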
For orientation: EC50 means the concentration at which the effect is half-maximal. In the case of `COc1cc(CNc2ccc3[nH]c(=O)[nH]c3c2)cc(Br)c1OCc1ccccc1F`, the EC50 is > 80 µM (inactive). The figure for `Cc1cccc(/C=C/C(=O)c2ccc([N+](=O)[O-])o2)c1` is > 80 µM (inactive). Turning to `CC(=O)Nc1ccc(N=Cc2c(O)c(C(=O)Nc3ccccc3)cc3ccccc23)cc1`, the EC50 result is “inactive”. For `O=C1NN(c2cccc(Br)c2)C(=O)/C1=C/c1cccs1`, the concentration giving a half-maximal response (EC50) was 8.89 µM. Take `Oc1c(CN2CCN(c3ccc(F)cc3)CC2)cc(Cl)c2cccnc12`: the EC50 was > 80 µM (inactive). Under `CCOC(=O)/C=c1\s/c(=C\c2ccc3cc(OC)ccc3c2)c(=O)n1CC(=O)NCC1CCCO1` (configuration not stated) stands 17.4 µM; under `CC1(C)C=Cc2c(c3c(c4c(=O)c(-c5ccc(O)cc5)coc24)OC(C)(C)CC3)O1`, “inactive”; under `O=C(Nc1cccc(-c2nc3cccnc3s2)c1)C1c2ccccc2Oc2ccccc21`, 5.58 µM. With `CN(C(=O)CSc1cc(C(=O)c2nccn2C)c2ccccc2n1)c1ccccc1`, the EC50 is > 80 µM (inactive). Under `O=C(N/N=C\c1cc2c(cc1Cl)OCO2)c1ccc(Br)s1` stands > 80 µM (inactive); under `CCOc1cccc(C(=O)Nc2cccc(-c3nnc(-c4ccc(C)cc4)o3)c2)c1`, > 80 µM (inactive). Take `COC(=O)c1cc(=O)n(CCc2ccc(OC)c(OC)c2)c(=Nc2ccc(F)c(Cl)c2)s1`: the EC50 was > 80 µM (inactive).

Regarding `Cc1coc2c1C(=O)C(=O)c1c-2ccc2c(C)cccc12`, the EC50 was > 80 µM (inactive). Under `Cc1cc(C)c2c(c1)/C(=c1/sc3n(c1=O)CN(c1ccccc1)CN=3)C(=O)N2` stands “inactive”. Under `COc1ccccc1-c1cc(C(F)(F)F)nc(S(C)(=O)=O)n1` stands > 80 µM (inactive).

With `O=C(Oc1c(CN2CCOCC2)cc(Cl)c2cccnc12)c1ccc(F)cc1`, the EC50 is > 80 µM (inactive). Under `Brc1ccccc1CN1CCN(Cc2c[nH]c3ccccc23)CC1` stands > 80 µM (inactive). `C=C1C(=O)C=C[C@]2(C)C[C@@H]3OC(=O)[C@](C)(O)[C@H]3C[C@@H]12`: the EC50 is > 80 µM (inactive).

With `C/C(=N\NC(=O)C(C)Oc1ccc([N+](=O)[O-])cc1)c1ccccn1` (configuration not stated), the EC50 was > 80 µM (inactive). The figure for `Cc1ccc(-c2nc(NC(=O)c3nn(C)cc3[N+](=O)[O-])sc2C)cc1` is > 80 µM (inactive); for `COc1cccc(/C=N/Nc2nc(Nc3ccccc3)nc(-n3nc(C)cc3C)n2)c1O` it is 5.09 µM. In the case of `Cc1cc(SCC(=O)N/N=C/c2ccc(O)c(O)c2)nc2ccccc12`, the EC50 entry is “inactive”.

`CCc1cc(C(=O)c2ccc(C)cc2)c(NC(=O)CCl)s1`: the EC50 was > 80 µM (inactive). As for `COc1cc(/C=C2\C(=O)ON=C2c2ccc(Cl)cc2)ccc1O`, the EC50 is > 80 µM (inactive). Turning to `S=C(Nc1ccccc1)c1ccccn1`, the EC50 is > 80 µM (inactive). The figure for `CCOC(=O)C(=Cc1ccc(-n2ccnc2)cc1)C(=O)OCC` is > 80 µM (inactive); for `O=C(/C(=C\c1ccccc1)c1nc2ccccc2[nH]1)c1ccc(Cl)cc1` it is > 80 µM (inactive); for `CCOc1ccc(-c2nnc(SCC(=O)Nc3ccc4c(c3)c3ccccc3n4CC)n2N)cc1` it is > 80 µM (inactive). As for `COc1ccc(N=C2S/C(=C\c3ccc(N4CCOCC4)o3)C(=O)N2CCc2c[nH]c3ccccc23)cc1`, the EC50 is > 80 µM (inactive). Under `CCCCCCCCCCn1c2c(c(=N)c3c1CCC3)CCC2` stands 19.8 µM; under `C=CCN=c1scc(C)n1/N=C/c1ccc(O)c(O)c1`, 17.4 µM; under `O=c1[nH]c(-c2ccc(-c3cccc(Cl)c3)o2)nc2ccccc12`, 15 µM. The figure for `Cc1cccnc1Nc1nc(-c2ccccn2)cs1` is > 80 µM (inactive); for `CCOC(=O)c1ccc(-c2ccc(/C=N/NC(=O)CN(c3cccc(C)c3)S(C)(=O)=O)o2)cc1` it is “inactive”.

For the compound `COc1cccc(N=Nc2ccc3cccnc3c2O)c1`, the EC50 is > 80 µM (inactive). The figure for `Cc1ccc(C)c2sc(N3CCN(C(=O)c4ccc([N+](=O)[O-])o4)CC3)nc12` is > 80 µM (inactive); for `CC1=C(/C=C/C(C)=C/C=C/C(C)=C/C(=O)Nc2ccc(O)cc2)C(C)(C)CCC1` it is > 80 µM (inactive); for `CC(=O)c1cccc(N=Cc2c(O)c3ccccc3oc2=O)c1` it is 15.4 µM. Regarding `CCOc1ccccc1-n1c(SCC(=O)Nc2ccc(CC)cc2)nc2n[nH]c(C)c2c1=N`, the EC50 was 7.99 µM. Under `COc1ccc(C2=CC(=O)N(Nc3ccccc3)C2=O)cc1` stands > 80 µM (inactive). Under `COCCN1CSC(=S)N(Cc2ccco2)C1` stands > 80 µM (inactive); under `Cc1cc(C(=O)Cn2ncc(Cl)c(Cl)c2=O)c(C)n1CC(F)(F)F`, > 80 µM (inactive).

In the case of `S=C1SCN(CCN2CCOCC2)CN1Cc1ccccc1`, the EC50 was > 80 µM (inactive). The figure for `CCc1nnc(NC(=O)c2nc(S(=O)(=O)Cc3ccc(C)cc3)ncc2Cl)s1` is > 80 µM (inactive). The figure for `Cc1ccc(C)c(NC(=O)/C(C#N)=C/c2cn(CC(=O)NCc3ccco3)c3ccccc23)c1` is 6.33 µM. For `COc1ccc(CCN2CCC(Nc3nc4ccccc4n3Cc3ccc(F)cc3)CC2)cc1`, the EC50 was > 80 µM (inactive).

For `S=C1SCN(Cc2ccco2)CN1Cc1ccco1`, the EC50 is > 80 µM (inactive). On to `CC(=O)Oc1ccc(OC(C)=O)c(SCCCCCN2CCOCC2)c1`, for which the EC50 is > 80 µM (inactive).

`C[C@@H]1CN([C@H](C)CO)C(=O)c2cc(NC(=O)Nc3ccc(C(F)(F)F)cc3)ccc2O[C@H]1CN(C)Cc1ccc(Cl)c(Cl)c1`: the EC50 is > 80 µM (inactive).

On to `CCOc1cc(/C=N/Nc2cc(C)nc(-n3nc(C)cc3C)n2)ccc1O`, for which the EC50 is > 80 µM (inactive). Under `COc1ccc(/C=N/Nc2cc(C)nc(-n3nc(C)cc3C)n2)c(OC)c1` stands > 80 µM (inactive); under `O=C(Nc1ccc(C(F)(F)F)cc1)c1cc(-c2cccnc2)nc2ccc(Br)cc12`, 6.29 µM; under `COc1ccc(C2OC34CCCCC3C(C#N)(C#N)C2(C#N)C(=N)O4)cc1` (configuration not stated), > 80 µM (inactive). `Cc1ccc(C(=O)NC(C#N)=C(Cl)Cl)cc1`: the EC50 is > 80 µM (inactive).

As to `COc1cc(/C=C(/C#N)c2nc3ccccc3[nH]2)ccc1OCC(=O)Nc1ccccc1C`, the EC50 is > 80 µM (inactive). In the case of `O=C(NCCc1ccccc1)c1coc(=O)c(Br)c1`, the EC50 is > 80 µM (inactive). Under `O=C1Nc2ccc(Br)cc2/C1=N/N=C/C1=C(N2CCOCC2)C(=C\c2ccccc2)/CC1` stands > 80 µM (inactive); under `CCCCCOc1ccc(N2C(=O)CC(N(O)c3ccccc3)C2=O)cc1` (configuration not stated), > 80 µM (inactive). Under `N#CC12COC3(CCCCC3C1(C#N)C#N)OC2=N` (configuration not stated) stands > 80 µM (inactive); under `Oc1ccc(CN2CCN(c3ccccc3)CC2)c2cccnc12`, > 80 µM (inactive); under `CCOC(=O)c1cnc(Nc2nc3ccccc3o2)nc1CSC(=S)N1CCCCC1`, 9.07 µM. Under `COc1ccc(CCn2c(C)cc(C(=O)CCl)c2C)cc1OC` stands > 80 µM (inactive).
